ChEMBL document CHEMBL4507266, “Data for DCP probe BAY-784” (2021)

How the values were obtained:
Settings in all cases: Compound concentration 1000.0 nM
[1] = target: Serine/threonine-protein kinase PAK 6 (Homo sapiens) (UniProt Q9NQU5)
[2] = tested on: Proto-oncogene tyrosine-protein kinase receptor Ret (Homo sapiens), P07949 [M918T]
[3] = tested on: Epidermal growth factor receptor (Homo sapiens), P00533 [UNDEFINED MUTATION]
[4] = target: Casein kinase I isoform epsilon (Homo sapiens) (UniProt P49674)
[5] = target: Maternal embryonic leucine zipper kinase (Homo sapiens) (UniProt Q14680)
[6] = target: Uncharacterized serine/threonine-protein kinase SBK3 (Homo sapiens) (UniProt P0C264)
[7] = tested on: Phosphatidylinositol 4,5-bisphosphate 3-kinase catalytic subunit alpha isoform (Homo sapiens), P42336 [E542K]
[8] = target: Mitogen-activated protein kinase kinase kinase 4 (Homo sapiens) (UniProt Q9Y6R4)
[9] = target: Calcium/calmodulin-dependent protein kinase type II subunit alpha (Homo sapiens) (UniProt Q9UQM7)
[10] = tested on: Phosphatidylinositol 4,5-bisphosphate 3-kinase catalytic subunit alpha isoform (Homo sapiens), P42336 [I800L]
[11] = target: Protein kinase C iota type (Homo sapiens) (UniProt P41743)
[12] = target: Myosin light chain kinase family member 4 (Homo sapiens) (UniProt Q86YV6)
[13] = target: Serine/threonine-protein kinase Chk2 (Homo sapiens) (UniProt O96017)
[14] = target: Death-associated protein kinase 3 (Homo sapiens) (UniProt O43293)
[15] = target: Angiopoietin-1 receptor (Homo sapiens) (UniProt Q02763)
[16] = target: Casein kinase I isoform gamma-3 (Homo sapiens) (UniProt Q9Y6M4)
[17] = target: Mitogen-activated protein kinase kinase kinase 20 (Homo sapiens) (UniProt Q9NYL2)
[18] = target: Ribosomal protein S6 kinase alpha-3 (Homo sapiens) (UniProt P51812)
[19] = target: Serine/threonine-protein kinase Nek4 (Homo sapiens) (UniProt P51957)
[20] = target: Mitogen-activated protein kinase kinase kinase 3 (Homo sapiens) (UniProt Q99759)
[21] = target: Serine/threonine-protein kinase 26 (Homo sapiens) (UniProt Q9P289)
[22] = target: Serine/threonine-protein kinase TBK1 (Homo sapiens) (UniProt Q9UHD2)
[23] = target: Serine/threonine-protein kinase 32C (Homo sapiens) (UniProt Q86UX6)
[24] = tested on: Tyrosine-protein kinase ABL1 (Homo sapiens), P00519 [F317L]
[25] = target: cAMP-dependent protein kinase catalytic subunit beta (Homo sapiens) (UniProt P22694)
[26] = target: Muscle, skeletal receptor tyrosine-protein kinase (Homo sapiens) (UniProt O15146)
[27] = target: Mitogen-activated protein kinase 4 (Homo sapiens) (UniProt P31152)
[28] = target: Calcium/calmodulin-dependent protein kinase type II subunit beta (Homo sapiens) (UniProt Q13554)
[29] = target: Tyrosine-protein kinase ABL1 (Homo sapiens) (UniProt P00519)
[30] = target: Insulin receptor-related protein (Homo sapiens) (UniProt P14616)
[31] = tested on: Epidermal growth factor receptor (Homo sapiens), P00533 [T790M]
[32] = target: Cyclin-dependent kinase 16 (Homo sapiens) (UniProt Q00536)
[33] = target: Ankyrin repeat and protein kinase domain-containing protein 1 (Homo sapiens) (UniProt Q8NFD2)
[34] = target: Serine/threonine-protein kinase Nek1 (Homo sapiens) (UniProt Q96PY6)
[35] = target: Mitogen-activated protein kinase 1 (Homo sapiens) (UniProt P28482)
[36] = target: Casein kinase II subunit alpha' (Homo sapiens) (UniProt P19784)
[37] = target: Activin receptor type-1B (Homo sapiens) (UniProt P36896)
[38] = target: Casein kinase I isoform gamma-1 (Homo sapiens) (UniProt Q9HCP0)
[39] = tested on: ALK tyrosine kinase receptor (Homo sapiens), Q9UM73 [C1156Y]
[40] = target: Cyclin-dependent kinase 19 (Homo sapiens) (UniProt Q9BWU1)
[41] = target: Ephrin type-B receptor 1 (Homo sapiens) (UniProt P54762)
[42] = target: MAP kinase-activated protein kinase 2 (Homo sapiens) (UniProt P49137)
[43] = target: Ephrin type-A receptor 3 (Homo sapiens) (UniProt P29320)
[44] = target: Myotonin-protein kinase (Homo sapiens) (UniProt Q09013)
[45] = target: Discoidin domain-containing receptor 2 (Homo sapiens) (UniProt Q16832)

Measured: residual activity

Chain of Serine/threonine-protein kinase Chk2 (Homo sapiens) (O96017 whole entry): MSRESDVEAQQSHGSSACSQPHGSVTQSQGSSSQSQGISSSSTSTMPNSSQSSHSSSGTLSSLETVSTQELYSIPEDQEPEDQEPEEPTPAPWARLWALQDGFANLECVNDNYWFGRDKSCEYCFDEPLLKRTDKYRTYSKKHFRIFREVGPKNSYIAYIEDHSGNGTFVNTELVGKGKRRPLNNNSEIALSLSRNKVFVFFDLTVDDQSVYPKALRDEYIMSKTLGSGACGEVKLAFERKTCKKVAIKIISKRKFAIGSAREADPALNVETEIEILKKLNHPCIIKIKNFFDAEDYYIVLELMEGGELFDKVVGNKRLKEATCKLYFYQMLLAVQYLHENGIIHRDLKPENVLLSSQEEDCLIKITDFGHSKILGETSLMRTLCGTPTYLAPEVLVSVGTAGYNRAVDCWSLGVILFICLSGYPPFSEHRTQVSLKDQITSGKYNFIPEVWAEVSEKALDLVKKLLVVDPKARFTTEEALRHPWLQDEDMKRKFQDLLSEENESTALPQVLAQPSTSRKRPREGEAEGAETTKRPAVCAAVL
Chain of Serine/threonine-protein kinase 26 (Homo sapiens) (Q9P289 2-416 limits assumed): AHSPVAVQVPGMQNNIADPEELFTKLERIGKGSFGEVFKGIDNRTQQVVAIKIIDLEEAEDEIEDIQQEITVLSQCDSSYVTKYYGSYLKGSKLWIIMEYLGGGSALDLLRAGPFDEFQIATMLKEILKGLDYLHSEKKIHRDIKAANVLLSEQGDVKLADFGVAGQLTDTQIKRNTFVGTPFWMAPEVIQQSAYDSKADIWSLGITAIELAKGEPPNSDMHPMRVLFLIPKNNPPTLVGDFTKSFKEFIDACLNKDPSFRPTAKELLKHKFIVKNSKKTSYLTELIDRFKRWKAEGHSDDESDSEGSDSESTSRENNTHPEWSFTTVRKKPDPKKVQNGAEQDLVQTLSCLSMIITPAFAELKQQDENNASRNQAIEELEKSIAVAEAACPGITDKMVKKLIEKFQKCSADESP
Chain of Serine/threonine-protein kinase 32C (Homo sapiens) (Q86UX6 whole entry): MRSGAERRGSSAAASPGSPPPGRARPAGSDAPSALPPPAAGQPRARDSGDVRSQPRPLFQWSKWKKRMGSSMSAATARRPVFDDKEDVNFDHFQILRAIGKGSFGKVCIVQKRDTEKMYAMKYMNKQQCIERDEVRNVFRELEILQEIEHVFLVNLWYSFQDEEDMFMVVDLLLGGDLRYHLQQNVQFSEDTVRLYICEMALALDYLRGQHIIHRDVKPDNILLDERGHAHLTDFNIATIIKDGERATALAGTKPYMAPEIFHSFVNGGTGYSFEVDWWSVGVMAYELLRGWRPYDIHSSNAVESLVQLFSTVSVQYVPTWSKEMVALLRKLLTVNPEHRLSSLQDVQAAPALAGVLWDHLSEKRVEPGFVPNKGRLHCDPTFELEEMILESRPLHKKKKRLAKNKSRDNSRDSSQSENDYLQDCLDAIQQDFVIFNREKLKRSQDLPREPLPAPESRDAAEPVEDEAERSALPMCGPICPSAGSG
Chain of Ankyrin repeat and protein kinase domain-containing protein 1 (Homo sapiens) (Q8NFD2 whole entry, the tested form may be a part): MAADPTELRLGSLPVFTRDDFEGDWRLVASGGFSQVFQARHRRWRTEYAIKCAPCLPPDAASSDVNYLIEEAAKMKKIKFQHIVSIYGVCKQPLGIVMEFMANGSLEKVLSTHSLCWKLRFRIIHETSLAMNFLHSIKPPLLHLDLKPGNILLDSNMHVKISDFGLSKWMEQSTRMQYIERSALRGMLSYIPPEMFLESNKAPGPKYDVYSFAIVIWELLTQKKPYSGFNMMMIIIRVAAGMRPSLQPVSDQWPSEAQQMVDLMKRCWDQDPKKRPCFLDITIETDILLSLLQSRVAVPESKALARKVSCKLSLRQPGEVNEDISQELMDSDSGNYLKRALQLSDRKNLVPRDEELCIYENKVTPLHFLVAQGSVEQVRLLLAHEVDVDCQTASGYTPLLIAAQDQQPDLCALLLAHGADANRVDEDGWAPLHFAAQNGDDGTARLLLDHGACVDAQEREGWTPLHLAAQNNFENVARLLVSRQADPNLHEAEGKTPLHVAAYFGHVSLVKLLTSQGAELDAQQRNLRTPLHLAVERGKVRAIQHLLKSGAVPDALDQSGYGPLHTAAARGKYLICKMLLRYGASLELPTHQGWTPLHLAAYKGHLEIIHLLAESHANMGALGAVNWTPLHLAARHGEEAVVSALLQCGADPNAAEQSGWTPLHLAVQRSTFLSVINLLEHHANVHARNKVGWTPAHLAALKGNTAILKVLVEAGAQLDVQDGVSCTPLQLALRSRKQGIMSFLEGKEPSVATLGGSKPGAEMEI
Chain of Cyclin-dependent kinase 19 (Homo sapiens) (Q9BWU1 whole entry): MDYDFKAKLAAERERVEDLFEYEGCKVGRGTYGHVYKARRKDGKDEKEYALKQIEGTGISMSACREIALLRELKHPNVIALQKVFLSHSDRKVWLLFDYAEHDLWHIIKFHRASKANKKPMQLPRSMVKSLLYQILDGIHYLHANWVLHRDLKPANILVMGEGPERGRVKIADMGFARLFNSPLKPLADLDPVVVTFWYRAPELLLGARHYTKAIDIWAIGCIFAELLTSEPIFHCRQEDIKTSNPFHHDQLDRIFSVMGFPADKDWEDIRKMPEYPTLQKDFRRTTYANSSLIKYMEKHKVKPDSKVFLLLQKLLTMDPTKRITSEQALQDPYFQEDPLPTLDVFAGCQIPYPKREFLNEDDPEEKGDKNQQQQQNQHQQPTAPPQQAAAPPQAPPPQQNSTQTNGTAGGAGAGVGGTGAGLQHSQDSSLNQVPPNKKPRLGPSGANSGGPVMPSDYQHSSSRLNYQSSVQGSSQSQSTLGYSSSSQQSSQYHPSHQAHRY
Chain of Myosin light chain kinase family member 4 (Homo sapiens) (Q86YV6 whole entry): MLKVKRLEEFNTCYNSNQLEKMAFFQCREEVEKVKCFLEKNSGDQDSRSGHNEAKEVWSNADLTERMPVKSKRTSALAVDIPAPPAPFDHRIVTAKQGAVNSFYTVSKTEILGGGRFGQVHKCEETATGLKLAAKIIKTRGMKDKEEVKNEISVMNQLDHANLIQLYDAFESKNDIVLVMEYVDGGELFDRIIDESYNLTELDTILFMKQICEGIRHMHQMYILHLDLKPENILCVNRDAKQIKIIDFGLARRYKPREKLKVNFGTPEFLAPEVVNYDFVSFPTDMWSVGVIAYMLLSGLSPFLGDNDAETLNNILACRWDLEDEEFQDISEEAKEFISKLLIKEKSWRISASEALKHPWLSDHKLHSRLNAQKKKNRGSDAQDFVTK
Chain of Ribosomal protein S6 kinase alpha-3 (Homo sapiens) (P51812 whole entry): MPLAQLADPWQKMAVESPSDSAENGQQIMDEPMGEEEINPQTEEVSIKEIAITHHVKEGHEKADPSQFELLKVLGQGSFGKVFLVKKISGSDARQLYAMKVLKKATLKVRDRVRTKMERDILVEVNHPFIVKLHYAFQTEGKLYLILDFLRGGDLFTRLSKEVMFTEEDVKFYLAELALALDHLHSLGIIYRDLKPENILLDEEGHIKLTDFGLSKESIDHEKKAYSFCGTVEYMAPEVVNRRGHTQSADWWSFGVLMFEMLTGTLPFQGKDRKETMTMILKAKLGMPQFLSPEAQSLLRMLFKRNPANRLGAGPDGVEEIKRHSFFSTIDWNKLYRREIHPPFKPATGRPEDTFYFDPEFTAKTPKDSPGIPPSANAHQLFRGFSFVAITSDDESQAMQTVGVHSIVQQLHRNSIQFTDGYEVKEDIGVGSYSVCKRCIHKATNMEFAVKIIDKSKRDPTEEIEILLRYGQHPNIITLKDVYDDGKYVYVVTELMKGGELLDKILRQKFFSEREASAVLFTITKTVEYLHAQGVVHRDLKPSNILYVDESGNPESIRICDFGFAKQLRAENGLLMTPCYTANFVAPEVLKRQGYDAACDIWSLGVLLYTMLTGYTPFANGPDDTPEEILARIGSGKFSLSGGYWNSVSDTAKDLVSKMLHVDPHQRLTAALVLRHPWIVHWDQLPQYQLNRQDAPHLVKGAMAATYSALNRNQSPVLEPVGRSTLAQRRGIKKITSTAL
Chain of Casein kinase II subunit alpha' (Homo sapiens) (P19784 whole entry, looked up): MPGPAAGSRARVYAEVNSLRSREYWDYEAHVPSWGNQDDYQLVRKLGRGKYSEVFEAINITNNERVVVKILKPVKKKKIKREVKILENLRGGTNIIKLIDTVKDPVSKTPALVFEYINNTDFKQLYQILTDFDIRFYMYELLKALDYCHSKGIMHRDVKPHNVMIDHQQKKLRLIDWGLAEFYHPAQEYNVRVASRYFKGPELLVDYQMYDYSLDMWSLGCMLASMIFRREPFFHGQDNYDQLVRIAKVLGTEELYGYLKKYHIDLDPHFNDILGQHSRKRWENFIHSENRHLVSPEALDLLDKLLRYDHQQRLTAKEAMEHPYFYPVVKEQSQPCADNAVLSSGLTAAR
Chain of Protein kinase C iota type (Homo sapiens) (P41743 whole entry): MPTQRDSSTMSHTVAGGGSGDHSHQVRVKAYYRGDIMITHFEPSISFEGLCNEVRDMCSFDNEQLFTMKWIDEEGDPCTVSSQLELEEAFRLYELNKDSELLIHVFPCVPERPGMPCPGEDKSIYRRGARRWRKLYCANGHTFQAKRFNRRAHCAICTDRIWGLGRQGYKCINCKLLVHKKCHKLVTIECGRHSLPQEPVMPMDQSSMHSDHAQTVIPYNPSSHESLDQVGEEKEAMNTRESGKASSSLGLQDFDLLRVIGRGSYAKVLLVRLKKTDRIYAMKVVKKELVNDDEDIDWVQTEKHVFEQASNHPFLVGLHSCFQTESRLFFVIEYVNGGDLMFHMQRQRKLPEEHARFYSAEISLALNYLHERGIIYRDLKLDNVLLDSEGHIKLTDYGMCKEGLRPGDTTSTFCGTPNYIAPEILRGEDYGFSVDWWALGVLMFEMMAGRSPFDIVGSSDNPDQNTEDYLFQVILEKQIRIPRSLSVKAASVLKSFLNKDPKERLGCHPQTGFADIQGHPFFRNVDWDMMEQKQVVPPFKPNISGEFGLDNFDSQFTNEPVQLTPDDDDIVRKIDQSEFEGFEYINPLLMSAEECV

O=C(NCc1ncc(C(F)(F)F)cc1Cl)c1ccc2c(c1)C1(CCS(=O)(=O)CC1)[C@H](C1CC1)N2S(=O)(=O)c1ccc(F)cc1 [BAY-784]
inactive: [1] 100% | [2] 96% | [3] 100% | [4] 100% | [5] 54% | [6] 100% | [7] 94% | [8] 100% | [9] 94% | [10] 78% | [11] 81% | [12] 100% | [13] 100% | [14] 90% | [15] 100% | [16] 100% | [17] 100% | [18] 70% | [19] 99% | [20] 74% | [21] 100% | [22] 80% | [23] 100% | [24] 88% | [25] 96% | [26] 100% | [27] 91% | [28] 98% | [29] 71% | [30] 100% | [31] 100% | [32] 100% | [33] 89% | [34] 100% | [35] 81% | [36] 100% | [37] 94% | [38] 86% | [39] 82% | [40] 100% | [41] 100% | [42] 100% | [43] 100% | [44] 93% | [45] 78%

O=C(NCc1ncc(C(F)(F)F)cc1Cl)c1ccc2c(c1)C1(CCS(=O)(=O)CC1)[C@@H](C1CC1)N2S(=O)(=O)c1ccc(F)cc1 [BAY-786]
inactive: [1] 100% | [2] 100% | [3] 85% | [4] 100% | [5] 100% | [6] 100% | [7] 82% | [8] 84% | [9] 90% | [10] 78% | [11] 100% | [12] 95% | [13] 97% | [14] 89% | [15] 96% | [16] 100% | [17] 92% | [18] 57% | [19] 99% | [20] 60% | [21] 82% | [22] 84% | [23] 100% | [24] 78% | [25] 85% | [26] 79% | [27] 89% | [28] 92% | [29] 86% | [30] 100% | [31] 100% | [32] 80% | [33] 76% | [34] 96% | [35] 83% | [36] 72% | [37] 87% | [38] 90% | [39] 100% | [40] 100% | [41] 100% | [42] 100% | [43] 67% | [44] 86% | [45] 67%
